Among the data in patent publication US8987287B2, “Spirocyclic morphinans and their use” (Purdue Pharma L.P., priority 2012, dated 2015) are Ki, EC50 and Emax values, retold here.

Structures are written as SMILES.

Experiment [1] has as its target κ opioid receptor (Homo sapiens (Human), UniProt P41145). The experiment is described as follows: κ-opioid receptor radioligand ([3H]-U69,593) dose-displacement binding assay. The settings on record: binding affinity, read-out: Opioid Receptor Ki (nM) κ. How it is done:
κ-Opioid Receptor Binding Assay Procedures: Membranes from recombinantHEK-293 cells, CHO or U-2 OS cells expressing the recombinant human κ opioid receptor (κ) were prepared by lysing cells in ice cold hypotonic buffer (2.5 mM MgCl2, 50 mM HEPES, pH 7.4) (10 mL/10 cm dish) followed by homogenization with a tissue grinder/Teflon pestle. Membranes were collected by centrifugation at 30,000×g for 15 min at 4° C. and pellets were resuspended in hypotonic buffer to a final concentration of 1-3 mg/mL. Protein concentrations were determined using the BioRad protein assay reagent with bovine serum albumen as standard. Aliquots of κ receptor membranes were stored at −80° C.
Radioligand dose displacement assays used 0.4 nM [^3H]-U69,593 (GE Healthcare, Piscataway, N.J.; 40 Ci/mmole) with 15 μg membrane protein (recombinant κ opioid receptor expressed in HEK 293 cells; in-house prep) in a final volume of 200 μl binding buffer (5% DMSO, 50 mM Trizma base, pH 7.4). Non-specific binding was determined in the presence of 10 μM unlabeled naloxone or U69,593. All reactions were performed in 96-well polypropylene plates for 1 hour at a temperature of about 25° C. Binding reactions were terminated by rapid filtration onto 96-well Unifilter GF/C filter plates (Perkin Elmer, Shelton, Conn.) presoaked in 0.5% polyethylenimine (Sigma). Harvesting was performed using a 96-well tissue harvester (Perkin Elmer, Shelton, Conn.) followed by five filtration washes with 200 μl ice-cold binding buffer. Filter plates were subsequently dried at 50° C. for 1-2 hours. Fifty μl/well scintillation cocktail (Perkin Elmer, Shelton, Conn.) was added and plates were counted in a Packard Top-Count for 1 min/well.
In TABLE 1, binding affinity of certain Compounds of the Invention to the μ-, δ- and κ-opioid receptors was determined as described above.

The target of experiment [2] is μ-opioid receptor (Homo sapiens (Human), UniProt P35372). Put plainly: μ-opioid receptor [35S]GTPγS functional assay, HEK-293 or CHO cells. In kind it is biochemical. The settings on record: for Emax: relative to DAMGO, HEK-293 or CHO cells. The protocol:
μ-Opioid Receptor Functional Assay Procedures: [^35S]GTPγS functional assays were conducted using freshly thawed μ-receptor membranes prepared in-house from a cell line expressing recombinant μ opioid receptor in a HEK-293, CHO or U-2 OS cell background, or purchased from a commercial source (Perkin Elmer, Shelton, Conn.; or DiscovRx, Fremont, Calif.). Assay reactions were prepared by sequentially adding the following reagents to binding buffer (100 mM NaCl, 10 mM MgCl2, 20 mM HEPES, pH 7.4) on ice (final concentrations indicated): membrane protein (0.026 mg/mL), saponin ([…]), GDP ([…]) and [^35S]GTPγS (0.20 nM; Perkin Elmer, Shelton, Conn.). The prepared membrane solution (190 μl/well) was transferred to 96-shallow well polypropylene plates containing 10 μl of 20× concentrated stock solutions of the agonist [D-Ala^2, N-methyl-Phe^4 Gly-ol^5]-enkephalin (DAMGO) prepared in dimethyl sulfoxide (DMSO). Plates were incubated for 30 min at about 25° C. with shaking. Reactions were terminated by rapid filtration onto 96-well Unifilter GF/B filter plates (Perkin Elmer, Shelton, Conn.) using a 96-well tissue harvester (Perkin Elmer, Shelton, Conn.) followed by three filtration washes with 200 μl of ice-cold wash buffer (10 mM NaH2PO4, 10 mM Na2HPO4, pH 7.4). Filter plates were subsequently dried at 50° C. for 2-3 hours. BetaScint scintillation cocktail (Perkin Elmer, Shelton, Conn.) was added (50 μl/well) and plates were counted using a Packard Top-Count for 1 min/well. Data were analyzed using the sigmoidal dose-response curve fitting functions in GraphPad PRISM v. 3.0, or an in-house function for non-linear, sigmoidal dose-response curve-fitting.
μ-Opioid Receptor Functional Data: μ GTP EC50 is the concentration of a compound providing 50% of the maximal response for the compound at a μ-opioid receptor.
μ GTP Emax (%) is the maximal effect elicited by a compound relative to the effect elicited by DAMGO, a standard μ agonist. Generally, the μ GTP Emax (%) value measures the efficacy of a compound to treat or prevent pain or other Conditions.
(§1) In TABLE 2, activity response of certain Compounds of the Invention to the μ-, δ- and κ-opioid receptors was determined as described above for functional assays using HEK-293 or CHO cells.
A general note: GTPγS resists hydrolysis and so accumulates on activated G proteins.

Experiment [3] has as its target δ opioid receptor (Homo sapiens (Human), UniProt P41143). Put plainly: δ-opioid receptor [35S]GTPγS functional assay, HEK-293 or CHO cells. It counts as biochemical. The settings on record: for Emax: relative to met-enkephalin, HEK-293 or CHO cells. The protocol:
δ-Opioid Receptor Functional Assay Procedures: Functional [^35S]GTPγS binding assays were conducted as follows. δ opioid receptor membrane solution was prepared by sequentially adding final concentrations of 0.026 μg/μl δ membrane protein (Perkin Elmer, Shelton, Conn.), 10 μg/mL saponin, 3 μM GDP and 0.20 nM [^35S]GTPγS to binding buffer (100 mM NaCl, 10 mM MgCl2, 20 mM HEPES, pH 7.4) on ice. The prepared membrane solution (190 μl/well) was transferred to 96-shallow well polypropylene plates containing 10 μl of 20× concentrated stock solutions of agonist prepared in DMSO. Plates were incubated for 30 min at a temperature of about 25° C. with shaking. Reactions were terminated by rapid filtration onto 96-well Unifilter GF/B filter plates (Perkin Elmer, Shelton, Conn.) using a 96-well tissue harvester (Packard) and followed by three filtration washes with 200 μl ice-cold binding buffer (10 mM NaH2PO4, 10 mM Na2HPO4, pH 7.4). Filter plates were subsequently dried at 50° C. for 1-2 hours. Fifty μl/well scintillation cocktail (Perkin Elmer, Shelton, Conn.) was added and plates were counted in a Packard Top-count for 1 min/well.
δ-Opioid Receptor Functional Data: δ GTP EC50 is the concentration of a compound providing 50% of the maximal response for the compound at a δ receptor.
δ GTP Emax (%) is the maximal effect elicited by a compound relative to the effect elicited by met-enkephalin.
as §1

Chain of δ opioid receptor (P41143 whole entry, looked up): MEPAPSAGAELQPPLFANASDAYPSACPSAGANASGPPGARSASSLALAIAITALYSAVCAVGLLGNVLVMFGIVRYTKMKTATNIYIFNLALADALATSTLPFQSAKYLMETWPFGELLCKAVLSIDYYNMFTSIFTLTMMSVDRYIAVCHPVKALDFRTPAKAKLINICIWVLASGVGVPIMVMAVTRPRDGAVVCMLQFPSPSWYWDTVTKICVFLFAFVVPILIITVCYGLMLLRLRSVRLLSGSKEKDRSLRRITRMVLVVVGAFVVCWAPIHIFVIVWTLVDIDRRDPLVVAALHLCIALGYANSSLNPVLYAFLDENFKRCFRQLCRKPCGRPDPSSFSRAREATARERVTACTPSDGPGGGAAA

`O=C1NC(=O)[C@@]2(CC[C@@]3(O)[C@H]4Cc5ccc(O)cc5[C@@]3(CCN4CC3CC3)C2)N1` [Compound 3, (4bR,4′S,8aS,9R)-11-(cyclopropylmethyl)-3,8a-dihydroxy-5,7,8,8a,9,10-hexahydrospiro[9,4b-(epiminoethano)phenanthrene-6,4′-imidazolidine]-2′,5′-dione]: in experiment [1], the Ki (as a rule, the dissociation constant of the complex between target and ligand, obtained from inhibition or displacement) was determined as 0.6 ± 0.15 nM. Further, in experiment [2], the 50% effective concentration (EC50) (in general, the midpoint of the concentration-response curve) was over 20 µM and the Emax (usually the size of the effect at its maximum, as opposed to the concentration needed) worked out at 10.6 ± 7.11%. Besides, in experiment [3], a half-maximal response (EC50) required 34.8 ± 7.78 nM and the Emax is 42.5 ± 2.84%.

Consider `O=C1NC[C@@]2(CC[C@@]3(O)[C@H]4Cc5ccc(O)cc5[C@@]3(CCN4CC3CC3)C2)N1` [Compound 5, (4bR,4′S,8aS,9R)-11-(cyclopropylmethyl)-3,8a-dihydroxy-5,7,8,8a,9,10-hexahydrospiro[9,4b-(epiminoethano)phenanthrene-6,4′-imidazolidin]-2′-one], for which the Ki in experiment [1] came out at 0.94 ± 0.18 nM. Moreover, the half-maximal effective concentration (EC50) in experiment [2] is over 20 µM; in experiment [3], 37 ± 15 nM. The Emax in experiment [2] is -1%; in experiment [3], 34.3 ± 2.91%.
